Measurements from ChEMBL document CHEMBL2177093, “The design and identification of brain penetrant inhibitors of phosphoinositide 3-kinase α” (J Med Chem, 2012).
One block for each compound: values may come before it. Active and inactive are the calls of the source. The calls are words filed in the database; no cut-off is given here.

Key:
mouse Bcrp1 = experiment: in vitro; settings: dog
SF-268 = experiment: Cytotoxicity against human SF268 cells incubated for 4 days; format: functional, cell-based; settings: SF-268, 96 h
U-87MG ATCC = experiment: Antitumor activity against PTEN deficient human U87MG cells xenografted in NCr nude mouse assessed as inhibition of tumor growth at 3 to 14 mg/kg, po qd for 24 days; format: functional, organism-based
[1] = Oral bioavailability in CD-1 mouse; format: ADME, organism-based; settings: in vivo
[2] = Half life in po dosed CD-1 mouse; format: ADME, organism-based; settings: in vivo
[3] = Antitumor activity in PTEN deficient human U87MG cells xenografted in NCr nude mouse assessed as loss in body weight at 40 mg/kg, po after 24 days; format: functional, U-87MG ATCC
M059J = experiment: Cytotoxicity against human M059J cells incubated for 4 days; format: functional, cell-based; settings: 96 h
[4] = Drug uptake in NCr nude mouse brain xenografted with PTEN deficient human U87MG cells at 40 mg/kg after 1 hr; format: ADME, organism-based, U-87MG ATCC; design: dose 40 mg/kg; settings: read-out: Drug uptake
Mus musculus [5] = organism: Mus musculus; settings: NCr, U-87MG ATCC, 10 mg/kg
[6] = Cytotoxicity against human Hs683 cells incubated for 4 days; format: functional, cell-based; settings: Hs 683, 96 h
Mus musculus [7] = experiment: Toxicity in PTEN deficient human U87MG cells xenografted in NCr nude mouse assessed as loss in body weight at 30 mg/kg, po qd for 24 days; format: organism-based, U-87MG ATCC; design: dose 30 mg/kg, route oral; settings: in vivo, 576 h
[8] = Ratio of drug level in brain to plasma in CD-1 mouse at 50 mg/kg, po at 1 hr; format: ADME, organism-based; design: dose 50 mg/kg, route oral; settings: read-out: BPR
Mus musculus [9] = organism: Mus musculus; settings: NCr, U-87MG ATCC, 3 mg/kg
[10] = Toxicity in PTEN deficient human U87MG cells xenografted in NCr nude mouse at dosed orally once daily for 24 days; format: organism-based, U-87MG ATCC; settings: in vivo, po
Mus musculus [11] = experiment: Inhibition of PI3K signaling in CD-1 mouse assessed as reduction in pAKT level at 50 mg/kg, po administered as single dose measured after 6 hrs post dose by immunoblotting method; format: functional; settings: CD-1, 6 h
Mus musculus [12] = experiment: Inhibition of PI3K signaling in CD-1 mouse assessed as reduction in pAKT level at 50 mg/kg, po administered as single dose measured after 1 hr post dose by immunoblotting method; format: functional; settings: CD-1, 1 h
[13] = Plasma protein binding in CD-1 mouse; format: ADME, cell-free; settings: read-out: PPB (converted)
[14] = Drug uptake in healthy mouse brain at 50 mg/kg after 1 hr; format: ADME, organism-based; design: dose 50 mg/kg; settings: read-out: Drug uptake
[15] = Cytotoxicity against human U87MG cells incubated for 4 days; format: functional, cell-based, U-87MG ATCC; settings: U-87 MG, 96 h
[16] = biological target: Phosphatidylinositol 4-phosphate 3-kinase C2 domain-containing subunit beta (Homo sapiens) (UniProt O00750); experiment: Inhibition of PI3KC2beta at 1 uM
[17] = Drug level in CD-1 mouse brain at 50 mg/kg, po administered as single dose measured after 6 hrs post dose; format: ADME, organism-based; design: dose 50 mg/kg, route oral; settings: read-out: Drug uptake
Mus musculus [18] = experiment: Toxicity in PTEN deficient human U87MG cells xenografted in NCr nude mouse assessed as loss in body weight at 50 mg/kg, po qd for 24 days; format: organism-based, U-87MG ATCC; design: dose 50 mg/kg, route oral; settings: in vivo, 576 h
[19] = Cytotoxicity against human LN229 cells incubated for 4 days; format: functional, cell-based; settings: LN-229, 96 h
Mus musculus [20] = organism: Mus musculus; settings: NCr, U-87MG ATCC, 40 mg/kg
[21] = Ratio of drug level in brain to plasma in CD-1 mouse at 50 mg/kg, po at 6 hrs; format: ADME, organism-based; design: dose 50 mg/kg, route oral; settings: read-out: BPR
[22] = Cytotoxicity against human A172 cells incubated for 4 days; format: functional, cell-based; settings: A 172, 96 h
Mus musculus [23] = organism: Mus musculus; settings: NCr, U-87MG ATCC, 3 mg/kg; remark: listed apart in the source
Mus musculus [24] = organism: Mus musculus; settings: NCr, U-87MG ATCC, 10 mg/kg; remark: listed apart in the source
[25] = Drug level in CD-1 mouse brain at 50 mg/kg, po administered as single dose measured after 1 hr post dose; format: ADME, organism-based; design: dose 50 mg/kg, route oral; settings: read-out: Drug uptake
[26] = Clearance in po dosed CD-1 mouse; format: ADME, organism-based; settings: in vivo
SF-539 = experiment: Cytotoxicity against human SF539 cells incubated for 4 days; format: functional, cell-based; settings: SF-539, 96 h
Mus musculus [27] = organism: Mus musculus; settings: NCr, U-87MG ATCC, 40 mg/kg; remark: listed apart in the source
[28] = Ratio of drug level in brain to plasma in CD-1 mouse at 10 mg/kg, po measured at 0.5 hrs; format: ADME, organism-based; design: dose 10 mg/kg, route oral; settings: read-out: BPR
[29] = Ratio of drug level in brain to plasma in CD-1 mouse at 25 mg/kg, po at 6 hrs; format: ADME, organism-based; design: dose 25 mg/kg, route oral; settings: read-out: BPR
[30] = biological target: Serine/threonine-protein kinase mTOR (Homo sapiens, UniProt P42345); experiment: Inhibition of human recombinant mTOR (1360 to 2549 amino acids) assessed as reduction in phosphorylation of (GFP)-4-EBP1 after 30 mins by FRET assay; settings: read-out: Ki(app)
[31] = Ratio of drug level in brain to plasma in CD-1 mouse at 25 mg/kg, po at 1 hr; format: ADME, organism-based; design: dose 25 mg/kg, route oral; settings: read-out: BPR
[32] = Ratio of drug level in brain to plasma in CD-1 mouse at 15 mg/kg, po at 1 hr; format: ADME, organism-based; design: dose 15 mg/kg, route oral; settings: read-out: BPR
[33] = Protein binding in CD-1 mouse brain at 25 mg/kg, po administered as single dose; format: ADME, organism-based; design: dose 25 mg/kg, route oral; settings: read-out: PB (converted)
[34] = Ratio of drug level in brain to plasma in CD-1 mouse at 15 mg/kg, po at 6 hrs; format: ADME, organism-based; design: dose 15 mg/kg, route oral; settings: read-out: BPR
[35] = Protein binding in CD-1 mouse plasma at 25 mg/kg, po administered as single dose; format: ADME, organism-based; design: dose 25 mg/kg, route oral; settings: read-out: PPB (converted)
[36] = Drug level in CD-1 mouse brain at 25 mg/kg, po administered as single dose measured after 1 hr post dose; format: ADME, organism-based; design: dose 25 mg/kg, route oral; settings: read-out: Drug uptake
Mus musculus [37] = experiment: Toxicity in PTEN deficient human U87MG cells xenografted in NCr nude mouse assessed as loss in body weight at 14 mg/kg, po qd for 24 days; format: organism-based, U-87MG ATCC; design: dose 14 mg/kg, route oral; settings: in vivo, 576 h
Mus musculus [38] = experiment: Toxicity in PTEN deficient human U87MG cells xenografted in NCr nude mouse assessed as loss in body weight at 6 mg/kg, po qd for 24 days; format: organism-based, U-87MG ATCC; design: dose 6 mg/kg, route oral; settings: in vivo, 576 h
Mus musculus [39] = experiment: Toxicity in PTEN deficient human U87MG cells xenografted in NCr nude mouse assessed as loss in body weight at 18 mg/kg, po qd for 24 days; format: organism-based, U-87MG ATCC; design: dose 18 mg/kg, route oral; settings: in vivo, 576 h
[40] = Drug level in CD-1 mouse brain at 25 mg/kg, po administered as single dose measured after 6 hrs post dose; format: ADME, organism-based; design: dose 25 mg/kg, route oral; settings: read-out: Drug uptake
Mus musculus [41] = experiment: Inhibition of PI3K signaling in CD-1 mouse assessed as reduction in pAKT level at 25 mg/kg, po administered as single dose measured after 1 hr post dose by immunoblotting method; format: functional; settings: CD-1, 1 h
[42] = Ratio of drug level in brain to plasma in CD-1 mouse at 20 mg/kg, po measured at 1 hr; format: ADME, organism-based; design: dose 20 mg/kg, route oral; settings: read-out: BPR
[43] = Clearance in rat; format: ADME, organism-based; settings: in vivo
in vitro = settings: human, liver microsomes

Chain of Phosphatidylinositol 4-phosphate 3-kinase C2 domain-containing subunit beta (Homo sapiens) (O00750 whole entry, the tested form may be a part): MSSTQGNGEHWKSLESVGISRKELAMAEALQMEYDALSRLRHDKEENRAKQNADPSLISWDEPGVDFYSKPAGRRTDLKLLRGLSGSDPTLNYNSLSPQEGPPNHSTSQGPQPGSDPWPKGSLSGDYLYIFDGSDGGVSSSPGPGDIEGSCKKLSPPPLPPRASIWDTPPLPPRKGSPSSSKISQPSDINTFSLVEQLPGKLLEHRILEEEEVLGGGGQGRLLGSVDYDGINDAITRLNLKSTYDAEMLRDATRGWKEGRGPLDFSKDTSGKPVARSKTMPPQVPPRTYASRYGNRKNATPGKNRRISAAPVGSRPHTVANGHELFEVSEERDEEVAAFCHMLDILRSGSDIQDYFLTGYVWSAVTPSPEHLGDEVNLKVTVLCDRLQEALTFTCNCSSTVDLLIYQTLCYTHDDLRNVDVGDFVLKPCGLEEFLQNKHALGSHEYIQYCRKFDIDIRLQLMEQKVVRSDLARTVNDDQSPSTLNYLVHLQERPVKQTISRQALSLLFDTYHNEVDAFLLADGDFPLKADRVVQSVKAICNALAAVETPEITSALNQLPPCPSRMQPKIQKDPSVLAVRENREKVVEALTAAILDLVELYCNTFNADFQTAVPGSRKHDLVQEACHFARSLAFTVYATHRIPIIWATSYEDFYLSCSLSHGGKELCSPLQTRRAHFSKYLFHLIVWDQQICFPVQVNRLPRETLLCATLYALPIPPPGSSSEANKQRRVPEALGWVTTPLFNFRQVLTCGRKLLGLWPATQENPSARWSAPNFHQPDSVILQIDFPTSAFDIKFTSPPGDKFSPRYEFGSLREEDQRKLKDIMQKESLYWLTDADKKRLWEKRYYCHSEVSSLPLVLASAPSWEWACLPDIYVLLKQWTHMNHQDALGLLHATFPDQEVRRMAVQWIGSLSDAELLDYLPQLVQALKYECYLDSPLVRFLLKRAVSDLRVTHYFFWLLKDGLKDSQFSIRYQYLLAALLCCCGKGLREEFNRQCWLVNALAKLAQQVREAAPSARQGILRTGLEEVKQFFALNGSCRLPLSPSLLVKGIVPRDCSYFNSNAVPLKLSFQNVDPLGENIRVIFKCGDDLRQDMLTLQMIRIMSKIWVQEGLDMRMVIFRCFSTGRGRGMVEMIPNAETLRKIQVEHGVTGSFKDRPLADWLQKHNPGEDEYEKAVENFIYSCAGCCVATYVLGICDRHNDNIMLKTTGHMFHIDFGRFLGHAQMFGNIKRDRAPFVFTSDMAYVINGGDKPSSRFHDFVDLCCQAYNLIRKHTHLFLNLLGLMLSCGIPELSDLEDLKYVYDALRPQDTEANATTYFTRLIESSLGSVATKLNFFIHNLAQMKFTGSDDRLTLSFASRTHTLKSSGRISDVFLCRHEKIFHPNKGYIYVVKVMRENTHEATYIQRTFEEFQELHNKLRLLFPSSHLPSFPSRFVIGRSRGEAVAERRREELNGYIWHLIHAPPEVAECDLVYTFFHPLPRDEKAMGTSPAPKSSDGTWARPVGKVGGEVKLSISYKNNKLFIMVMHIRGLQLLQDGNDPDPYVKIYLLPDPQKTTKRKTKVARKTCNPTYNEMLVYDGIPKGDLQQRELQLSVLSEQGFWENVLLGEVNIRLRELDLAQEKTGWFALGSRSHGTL

SMILES: Cc1c(C2(O)COC2)sc2c(N3CCOCC3)nc(-c3cnc(N)nc3)nc12
efflux ratio at 2 h, 5 µM (mouse Bcrp1): 7.1

SMILES: COC1(c2sc3c(N4CCOCC4)nc(-c4cnc(N)nc4)nc3c2C)COC1
EC50 (SF-268): 570 nM | TGI (U-87MG ATCC): Dose-dependent effect | bioavailability [1]: 75% | half-life [2]: 17 h | Activity [3]: <15% | EC50 (M059J): 330 nM | concentration at 1 h [4]: 2200 nM | inhibition (Mus musculus [5]): Active | EC50 [6]: 230 nM | Activity (Mus musculus [7]): Non-toxic | Kp at 1 h [8]: 1 | inhibition (Mus musculus [9]): Active | MTD at 576 h [10]: 40 mg/kg | inhibition in vivo at 50 mg/kg (Mus musculus [11]): 31% | inhibition in vivo at 50 mg/kg (Mus musculus [12]): 62% | fraction unbound [13]: 0.15 | concentration at 1 h [14]: 3600 nM | EC50 [15]: 250 nM | inhibition [16]: 77% | concentration at 6 h [17]: 2310 nM | Activity (Mus musculus [18]): > 15% | EC50 [19]: 140 nM | inhibition (Mus musculus [20]): Active | Kp at 6 h [21]: 1 | EC50 [22]: 240 nM | inhibition (Mus musculus [23]): Active | inhibition (Mus musculus [24]): Active | concentration at 1 h [25]: 3640 nM | CL/F [26]: 32 mL/min/kg | EC50 (SF-539): 250 nM | inhibition (Mus musculus [27]): Active

SMILES: CC1(C)OCCc2c1sc1c(N3CCOCC3)nc(-c3cnc(N)nc3)nc21
efflux ratio at 2 h, 5 µM (mouse Bcrp1): 2.3 | bioavailability [1]: 93% | half-life [2]: 2.9 h | Kp at 1 h [32]: 1.4 | fraction unbound [13]: 0.006 | fraction unbound [33]: 0.003 | Kp at 6 h [34]: 1.6 | Ki [30]: 13 nM | CL/F [26]: 16 mL/min/kg | fraction unbound [35]: 0.006

SMILES: COC(C)(C)c1cc2nc(-c3cnc(N)nc3)nc(N3CCOCC3)c2s1
EC50 (SF-268): 1000 nM | TGI (U-87MG ATCC): Dose-dependent effect | bioavailability [1]: 25% | half-life [2]: 20 h | concentration at 1 h [36]: 2140 nM | EC50 (M059J): 590 nM | inhibition (Mus musculus [5]): Active | EC50 [6]: 270 nM | inhibition (Mus musculus [9]): Active | MTD at 576 h [10]: 14 mg/kg | Activity (Mus musculus [37]): < 15% | fraction unbound [13]: 0.102 | EC50 [15]: 290 nM | Activity (Mus musculus [38]): Non-toxic | Activity (Mus musculus [39]): Toxic | EC50 [19]: 400 nM | inhibition (Mus musculus [20]): Active | Kp at 6 h [29]: 0.9 | EC50 [22]: 380 nM | concentration at 6 h [40]: 350 nM | inhibition (Mus musculus [23]): Active | inhibition (Mus musculus [24]): Active | inhibition in vivo at 25 mg/kg (Mus musculus [41]): 39% | CL/F [26]: 20 mL/min/kg | EC50 (SF-539): 340 nM | inhibition (Mus musculus [27]): Active | Kp at 1 h [31]: 1

Other lines, results leading:

Kp at 0.5 h [28]: < 0.05
SMILES: CS(=O)(=O)N1CCN(Cc2cc3nc(-c4cccc5[nH]ncc45)nc(N4CCOCC4)c3s2)CC1 [PICTILISIB]

efflux ratio at 2 h, 5 µM (mouse Bcrp1): 1.2 | bioavailability [1]: 46% | half-life [2]: 3.3 h | fraction unbound [13]: 0.087 | Kp at 6 h [29]: 1.2 | Ki [30]: 21 nM | CL/F [26]: 52 mL/min/kg | Kp at 1 h [31]: 0.9
SMILES: CC1(C)COC1c1cc2nc(-c3cnc(N)nc3)nc(N3CCOCC3)c2s1 (configuration not stated)

efflux ratio at 2 h, 5 µM (mouse Bcrp1): 1.4
SMILES: COCCOC1(c2cc3nc(-c4cnc(N)nc4)nc(N4CCOCC4)c3s2)COC1

Kp at 1 h [42]: < 0.1 | clearance [43]: 3 mL/min/kg | CLhep predicted (in vitro): 3 mL/min/kg
SMILES: Cc1c(CN2CCN(C(=O)[C@H](C)O)CC2)sc2c(N3CCOCC3)nc(-c3cnc(N)nc3)nc12 [APITOLISIB]
